Experimental findings from ChEMBL document CHEMBL5108053 (J Med Chem, 2022) are described below.

SMILES strings stand for the structures.

The first data set in a line: Volume of distribution in C57BL/6 mouse at 1 mg/kg, iv or 10 mg/kg, po by HPLC analysis. The class given is ADME, organism-based. The note with it: in vivo.
With `OC[C@H]1O[C@H](Sc2ccc(Cl)c(Cl)c2)[C@H](O)[C@@H](n2cc(-c3cc(F)c(F)c(F)c3)nn2)[C@H]1O`, the Vd worked out at 0.4 L/kg.

For the compound `N#Cc1ccc(S[C@H]2O[C@H](CO)[C@H](O)[C@H](n3cc(-c4cc(F)c(F)c(F)c4)nn3)[C@H]2O)cc1Cl`, the Vd was found to be 0.9 L/kg.

Consider `OC[C@H]1O[C@H](Sc2cncc(Br)c2)[C@H](O)[C@@H](n2cc(-c3cc(F)c(F)c(F)c3)nn2)[C@H]1O` [SELVIGALTIN], for which the Vd worked out at 1.1 L/kg.

The nature of the next data set: Lipophilicity, logD of the compound in Octanol/potassium phosphate buffer at pH 7.4 after 1 hr by shake-flask based LC-MS/MS analysis. The class given is physicochemical. The note with it: octanol/water, pH 7.4, 1 h.
As usually defined, the logD is lipophilicity at a set pH, counting ionised and neutral species. As for `C[C@H]1O[C@@H](S[C@@H]2O[C@H](CO)[C@H](O)[C@H](n3cc(-c4cccc(F)c4)nn3)[C@H]2O)[C@H](O)[C@@H](n2cc(-c3cccc(F)c3)nn2)[C@H]1O`, the logD worked out at 2.4.

Consider `OC[C@H]1O[C@H](Sc2ccc(Cl)c(Cl)c2)[C@H](O)[C@@H](n2cc(-c3cc(F)c(F)c(F)c3)nn2)[C@H]1O`, for which the logD came to 4.6.

In turn, `CC(=O)Nc1ccc(S[C@H]2O[C@H](CO)[C@H](O)[C@H](n3cc(-c4cc(F)c(F)c(F)c4)nn3)[C@H]2O)cc1` yielded a logD of 2.28.

On to `CCCCSC[C@H]1O[C@@H](S[C@@H]2O[C@H](CO)[C@H](O)[C@H](n3cc(-c4cccc(F)c4)nn3)[C@H]2O)[C@H](O)[C@@H](n2cc(-c3cccc(F)c3)nn2)[C@H]1O`, for which the logD amounted to 3.4.

`N#Cc1ccc(S[C@H]2O[C@H](CO)[C@H](O)[C@H](n3cc(-c4cc(F)c(F)c(F)c4)nn3)[C@H]2O)cc1Cl` came in with a logD of 3.7.

In the case of `OC[C@H]1O[C@@H](S[C@@H]2O[C@H](CO)[C@H](O)[C@H](n3cc(-c4cccc(F)c4)nn3)[C@H]2O)[C@H](O)[C@@H](n2cc(-c3cccc(F)c3)nn2)[C@H]1O` [OLITIGALTIN], the logD amounted to 2.1.

In the case of `OC[C@H]1O[C@H](Sc2cncc(Br)c2)[C@H](O)[C@@H](n2cc(-c3cc(F)c(F)c(F)c3)nn2)[C@H]1O` [SELVIGALTIN], the logD came to 3.

A short description of the next data set: Stability in human hepatocytes assessed as intrinsic clearance at 2 uM measured per 10^6 cells incubated at 15 to 120 mins by LC-MS/MS analysis. The conditions noted are these: time 15-120 min. Format: ADME, cell-based, Hepatocyte.
Regarding `OC[C@H]1O[C@H](Sc2ccc(Cl)c(Cl)c2)[C@H](O)[C@@H](n2cc(-c3cc(F)c(F)c(F)c3)nn2)[C@H]1O`, the CLH was found to be 0.7 µL/min.

With `N#Cc1ccc(S[C@H]2O[C@H](CO)[C@H](O)[C@H](n3cc(-c4cc(F)c(F)c(F)c4)nn3)[C@H]2O)cc1Cl`, the CLH came to 0.8 µL/min.

Consider `OC[C@H]1O[C@H](Sc2cncc(Br)c2)[C@H](O)[C@@H](n2cc(-c3cc(F)c(F)c(F)c3)nn2)[C@H]1O` [SELVIGALTIN], for which the CLH was 0.15 µL/min.

The next data set can be described thus: Stability in mouse hepatocytes assessed as intrinsic clearance at 2 uM measured per 10^6 cells incubated at 15 to 120 mins by LC-MS/MS analysis. The conditions noted are these: time 15-120 min. The class given is ADME, cell-based, Hepatocyte.
In the case of `OC[C@H]1O[C@H](Sc2ccc(Cl)c(Cl)c2)[C@H](O)[C@@H](n2cc(-c3cc(F)c(F)c(F)c3)nn2)[C@H]1O`, the CLH is 0.8 µL/min.

As to `N#Cc1ccc(S[C@H]2O[C@H](CO)[C@H](O)[C@H](n3cc(-c4cc(F)c(F)c(F)c4)nn3)[C@H]2O)cc1Cl`, the CLH was 1.1 µL/min.

A short description of the next data set: Oral bioavailability in C57BL/6 mouse at 1 mg/kg, iv or 10 mg/kg by HPLC analysis. The note with it: in vivo. The class given is ADME, organism-based.
What is called bioavailability is the share of a dose that reaches the circulation, judged against a reference dose that is usually intravenous. Higher therefore signals good availability. Regarding `OC[C@H]1O[C@H](Sc2ccc(Cl)c(Cl)c2)[C@H](O)[C@@H](n2cc(-c3cc(F)c(F)c(F)c3)nn2)[C@H]1O`, the bioavailability was 75%.

As for `N#Cc1ccc(S[C@H]2O[C@H](CO)[C@H](O)[C@H](n3cc(-c4cc(F)c(F)c(F)c4)nn3)[C@H]2O)cc1Cl`, the bioavailability stood at 95%.

As for `OC[C@H]1O[C@H](Sc2cncc(Br)c2)[C@H](O)[C@@H](n2cc(-c3cc(F)c(F)c(F)c3)nn2)[C@H]1O` [SELVIGALTIN], the bioavailability was 68%.
